# pEC50: −log10 of the molar value.
# Assay: Negative allosteric modulator activity at CB1 receptor (unknown origin) expressed in HEK293 cell membrane assessed as reduction in CP55,940-induced [35S]GTPgammaS binding by measuring EC50 of CP55,940 at 3.2 uM incubated for 60 mins by liquid scintillation counting analysis (Rvb = 4.7 nM)
row,pEC50,Compound
1,8.10,CCCCCc1c(C(=O)NCCc2ccc(C(=O)c3ccccc3)cc2)[nH]c2ccc(Cl)cc12
2,8.68,CCCCCCc1c(C(=O)NCCc2ccc(N=[N+]=[N-])cc2)[nH]c2ccc(Cl)cc12
3,8.92,CN(C)c1ccc(CCNC(=O)c2[nH]c3ccc(Cl)cc3c2CN=[N+]=[N-])cc1
4,8.57,CCc1c(C(=O)NCCc2ccc(C(=O)c3ccccc3)cc2)[nH]c2ccc(Cl)cc12

# Source: BindingDB's records for doi:10.1016/j.ejmech.2016.05.044 (Texas A&M University, 2016)
